The subject of one test is FoxO3a. Description: FoxO3a inhibition: GFP-FoxO3a nuclear to cytoplasmic translocation reporter assay. As to conditions: Homo sapiens, U2OS, 0.5 h, U2OS GFP-FoxO3a H212R cells, serum starved overnight, compound 30 minutes; ratio of nuclear to cytosolic GFP intensity; DMSO control 0%; read-out: FoxO AC50. Type of test: cell-based. Put shortly:
(§1)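 Serum-starved U2OS cells expressing GFP-FoxO3a H212R treated with compounds 30 min, fixed, imaged. FoxO3a: nuclear/cytosolic GFP ratio, %. AKT: total cellular phospho-AKT (Ser473) antibody staining intensity, %. DMSO set as 0% activity.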

A further test deals with AKT. Description: AKT activation: Phospho-AKT (Ser473) antibody staining in reporter cells. Type of test: cell-based. The settings on record: Homo sapiens, U2OS, 0.5 h, U2OS GFP-FoxO3a H212R cells, serum starved overnight, compound 30 minutes; total cellular intensity of Phospho-AKT (Ser473) staining; DMSO control 0%. Put shortly:
as §1

For the compound `Cc1cc(C(N)=O)nn1-c1ccc2c(ccn2Cc2ccc(-c3ccc(CN4CCC[C@@H]4CO)cc3)cc2)c1` [Example 34-2, (R)-1-(1-((4′-((2-(hydroxymethyl)pyrrolidin-1-yl)methyl)-[1,1′-biphenyl]-4-yl)methyl)-1H-indol-5-yl)-5-methyl-1H-pyrazole-3-carboxamide], the concentration at half-maximal activity (AC50) in the test with FoxO3a is 42 nM; in the test on AKT, 3 nM.
Take `Cc1cc(C(N)=O)nn1-c1ccc2c(ccn2Cc2ccc(-c3ccc(CN4CCN(C)CC4)cc3)cc2)c1` [Example 34-3, 5-methyl-1-(1-((4′-((4-methylpiperazin-1-yl)methyl)-[1,1′-biphenyl]-4-yl)methyl)-1H-indol-5-yl)-1H-pyrazole-3-carboxamide]: the figures for the AC50 with FoxO3a and in the test with AKT were 131 nM and 266 nM, respectively.
As for `Cc1cc(C(N)=O)nn1-c1ccc2c(ccn2Cc2ccc(-c3ccc(CN4CCNCC4)cc3)cc2)c1` [Example 35, 5-methyl-1-(1-((4′-(piperazin-1-ylmethyl)-[1,1′-biphenyl]-4-yl)methyl)-1H-indol-5-yl)-1H-pyrazole-3-carboxamide], the AC50 in the test on FoxO3a is 181 nM; in the test with AKT, 603 nM.
Take `Cc1cc(C(N)=O)nn1-c1ccc2c(ccn2Cc2ccc(-c3ccc(C(=O)N4CCN(C)CC4)cc3)cc2)c1` [Example 36, 5-methyl-1-(1-((4′-(4-methylpiperazine-1-carbonyl)-[1,1′-biphenyl]-4-yl)methyl)-1H-indol-5-yl)-1H-pyrazole-3-carboxamide]: the values for the concentration at half-maximal activity (AC50) with FoxO3a and with AKT were 49 nM and 39 nM, respectively.
On to `Cc1cc(C(N)=O)nn1-c1ccc2c(ccn2Cc2ccc([C@H]3C[C@H]4CNC[C@H]4C3)cc2)c1` [Example 39, 5-methyl-1-(1-(4-((3aR,5r,6aS)-octahydrocyclopenta[c]pyrrol-5-yl)benzyl)-1H-indol-5-yl)-1H-pyrazole-3-carboxamide], for which the half-maximal activity concentration (AC50) in the test with FoxO3a amounted to 175 nM; in the test on AKT, 907 nM.
The corresponding values for `Cc1cc(C(N)=O)nn1-c1ccc2c(ccn2Cc2ccc([C@@H]3C[C@@H]4CN(CC5CC5)C[C@@H]4C3)cc2)c1` [Example 40, 1-(1-(4-((3aR,5r,6aS)-2-(cyclopropylmethyl)octahydrocyclopenta[c]pyrrol-5-yl)benzyl)-1H-indol-5-yl)-5-methyl-1H-pyrazole-3-carboxamide] are 161 nM and 1220 nM.
The corresponding values for `Cc1cc(C(N)=O)nn1-c1ccc2c(ccn2Cc2ccc([C@@H]3C[C@@H]4CN(S(C)(=O)=O)C[C@@H]4C3)cc2)c1` [Example 41, 5-methyl-1-(1-(4-((3aR,5r,6aS)-2-(methylsulfonyl)octahydrocyclopenta[c]pyrrol-5-yl)benzyl)-1H-indol-5-yl)-1H-pyrazole-3-carboxamide] are 113 nM and 304 nM.
Consider `Cc1cc(C(N)=O)nn1-c1ccc2c(ccn2Cc2ccc([C@@H]3C[C@@H]4CN(CCS(C)(=O)=O)C[C@@H]4C3)cc2)c1` [Example 42, 5-Methyl-1-(1-(4-((3aR,5r,6aS)-2-(2-(methylsulfonyl)ethyl)octahydrocyclopenta[c]pyrrol-5-yl)benzyl)-1H-indol-5-yl)-1H-pyrazole-3-carboxamide], for which the values for the AC50 with FoxO3a and with AKT were 69 nM and 230 nM, respectively.
`Cc1cn(Cc2ccc([C@@H]3C[C@@H]4CN(C)C[C@@H]4C3)cc2)c2ccc(-n3nc(C(N)=O)cc3C)cc12` [Example 43, 5-Methyl-1-(3-methyl-1-(4-((3aR,5r,6aS)-2-methyloctahydrocyclopenta[c]pyrrol-5-yl)benzyl)-1H-indol-5-yl)-1H-pyrazole-3-carboxamide]: the figures for the AC50 in the test with FoxO3a and in the test with AKT were 215 nM and 740 nM, respectively.

For orientation: AC50 means the concentration giving half of the maximal activity seen.

Values taken from patent publication US10654828B2 (NOVARTIS AG, priority 2017, dated 2020).
